Results on 7 compounds are retold here after the NIST ThermoML archive (doi:10.1016/j.jct.2007.05.016).

Each structure is given as a SMILES string. Where “and” joins values, the source holds several entries; their conditions need not be identical. Identical values can stand only once. ± gives the expanded uncertainty stated by the source.

For data set [1] the following is noted: 101 kPa, Liquid; for speed of sound: Sing-around technique in a fixed-path interferometer.
Data set [2] in a line: xn = mol fraction of the nth substance listed. The following applies: 101 kPa, Liquid, x1 = 1; for speed of sound: Sing-around technique in a fixed-path interferometer.

The term mass density denotes mass per unit of volume. By viscosity is commonly meant the internal friction of a fluid under shear. In general, speed of sound refers to how fast a sound wave travels through the sample. Take `CCCCO` [butan-1-ol]: the mass density in data set [1] (298.15 K) came to 805.907 ± 0.77 kg/m3; in data set [1] (303.15 K) it was 803.155 ± 0.78 kg/m3; in data set [1] (308.15 K) it was 799.249 ± 0.78 kg/m3. Moreover, the viscosity in data set [1] (298.15 K) is given as 2.573 ± 0.032 mPa·s. Also, the speed of sound in data set [1] (298.15 K) is 1240.5 ± 1.2 m/s and 1240.4 ± 1.2 m/s; in data set [1] (303.15 K), 1226.5 ± 1.2 m/s; in data set [1] (308.15 K) it was 1209.8 ± 1.2 m/s.

Consider `CCCCO` [butan-1-ol] + CCCCCC, for which, in data set [2] (298.15 K), the speed of sound is 1240.5 ± 1.2 m/s, the mass density is 805.907 ± 0.77 kg/m3 and the viscosity turned out to be 2.573 ± 0.032 mPa·s. In addition, in data set [2] (303.15 K), the speed of sound is 1226.5 ± 1.2 m/s and the mass density is listed as 803.155 ± 0.78 kg/m3. Besides, in data set [2] (308.15 K), the speed of sound was 1209.8 ± 1.2 m/s and the mass density is reported as 799.249 ± 0.78 kg/m3.

Consider `CCCCO` [butan-1-ol] + CCCCCCCC, for which, in data set [2] (298.15 K), the speed of sound amounted to 1240.4 ± 1.2 m/s, the mass density turned out to be 805.907 ± 0.77 kg/m3 and the viscosity was 2.573 ± 0.032 mPa·s. Also, in data set [2] (303.15 K), the speed of sound worked out at 1226.5 ± 1.2 m/s and the mass density came out at 803.155 ± 0.78 kg/m3. For the same compound, in data set [2] (308.15 K), the speed of sound was 1209.8 ± 1.2 m/s and the mass density came to 799.249 ± 0.78 kg/m3.

`CCCCO` [butan-1-ol] + CCCCCCCCCC: in data set [2] (298.15 K), the speed of sound was found to be 1240.5 ± 1.2 m/s, the mass density is listed as 805.907 ± 0.77 kg/m3 and the viscosity was 2.573 ± 0.032 mPa·s. In data set [2] (303.15 K), the speed of sound turned out to be 1226.5 ± 1.2 m/s and the mass density is 803.155 ± 0.78 kg/m3. Further, in data set [2] (308.15 K), the speed of sound is recorded as 1209.8 ± 1.2 m/s and the mass density was determined as 799.249 ± 0.78 kg/m3.

As to `CCCCCCCCCC` [decane], in data set [1] (298.15 K), the mass density is on record as 726.806 ± 0.93 kg/m3, the viscosity worked out at 0.852 ± 0.012 mPa·s and the speed of sound came to 1234.8 ± 1.2 m/s. Also, in data set [1] (303.15 K), the mass density worked out at 723.042 ± 0.94 kg/m3 and the speed of sound was determined as 1215.2 ± 1.2 m/s. For the same compound, in data set [1] (308.15 K), the mass density turned out to be 719.23 ± 0.95 kg/m3 and the speed of sound is 1195.6 ± 1.2 m/s.

Regarding `CCCCCC` [hexane], in data set [1] (298.15 K), the mass density is on record as 655.072 ± 1.1 kg/m3, the viscosity was determined as 0.313 ± 0.008 mPa·s and the speed of sound was 1077.8 ± 1.2 m/s. Also, in data set [1] (303.15 K), the mass density was found to be 650.369 ± 1.1 kg/m3 and the speed of sound was determined as 1055.2 ± 1.1 m/s. Also, in data set [1] (308.15 K), the mass density amounted to 645.767 ± 1.1 kg/m3 and the speed of sound came out at 1032.9 ± 1.1 m/s.

As for `CCCCCCCC` [octane], in data set [1] (298.15 K), the mass density came out at 698.58 ± 0.99 kg/m3, the viscosity was found to be 0.518 ± 0.009 mPa·s and the speed of sound is recorded as 1172.7 ± 1.2 m/s. Moreover, in data set [1] (303.15 K), the mass density was 694.497 ± 1 kg/m3 and the speed of sound amounted to 1152.1 ± 1.2 m/s. In data set [1] (308.15 K), the mass density came out at 690.416 ± 1 kg/m3 and the speed of sound is on record as 1131.7 ± 1.2 m/s.
